Experimental data published in US20260008770A1, “CBL-B INHIBITORS AND METHODS OF USES THEREOF” (Insilico Medicine IP Limited, priority 2022, published 2026).
Read-outs that look alike come from different tables or passages of the source.

Target: Cbl-b protein (CBL-B, GST-Tag) (Homo sapiens (Human), UniProt Q13191)
Assay: HTRF based binding assay, affinity to Cbl-b protein
[1] = HTRF binding, CBL-B (GST-Tag), fluorescence labeled Cbl-b binding probe

Chain of Cbl-b protein (CBL-B, GST-Tag) (Q13191 whole entry): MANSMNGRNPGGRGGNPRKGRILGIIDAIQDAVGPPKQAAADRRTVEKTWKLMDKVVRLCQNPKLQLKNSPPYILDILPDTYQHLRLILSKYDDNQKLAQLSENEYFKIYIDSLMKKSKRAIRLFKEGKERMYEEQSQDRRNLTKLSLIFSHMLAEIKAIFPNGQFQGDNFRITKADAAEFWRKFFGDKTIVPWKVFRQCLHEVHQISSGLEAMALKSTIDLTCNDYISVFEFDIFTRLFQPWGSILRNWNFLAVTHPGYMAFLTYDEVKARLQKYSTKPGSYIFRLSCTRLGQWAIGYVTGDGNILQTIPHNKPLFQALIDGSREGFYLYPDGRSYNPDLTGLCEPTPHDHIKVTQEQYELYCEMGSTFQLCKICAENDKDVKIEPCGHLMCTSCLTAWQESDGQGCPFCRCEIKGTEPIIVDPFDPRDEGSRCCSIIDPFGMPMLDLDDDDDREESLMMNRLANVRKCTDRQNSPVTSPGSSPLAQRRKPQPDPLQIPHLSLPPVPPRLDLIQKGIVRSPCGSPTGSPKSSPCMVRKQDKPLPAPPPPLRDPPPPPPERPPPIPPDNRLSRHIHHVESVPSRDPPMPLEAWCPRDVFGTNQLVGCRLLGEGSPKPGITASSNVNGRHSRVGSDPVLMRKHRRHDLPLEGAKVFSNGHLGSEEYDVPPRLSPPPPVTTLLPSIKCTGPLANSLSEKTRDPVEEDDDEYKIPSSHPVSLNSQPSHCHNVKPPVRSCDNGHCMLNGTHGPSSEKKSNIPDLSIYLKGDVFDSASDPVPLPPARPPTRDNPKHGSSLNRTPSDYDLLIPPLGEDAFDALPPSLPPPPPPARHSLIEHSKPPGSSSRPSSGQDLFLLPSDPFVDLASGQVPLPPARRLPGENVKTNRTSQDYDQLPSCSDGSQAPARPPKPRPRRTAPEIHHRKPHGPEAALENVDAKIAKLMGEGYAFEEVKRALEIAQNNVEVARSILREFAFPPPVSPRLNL

Structure (SMILES)	IC50 [µM]	IC50 [1] [µM]
C[C@H]1CCCN(Cc2cc(C(F)(F)F)c3ncn(-c4cc(C5(c6nncn6C)CC6(CC6)C5)ccn4)c(=O)c3c2)C1 [Example 118]	0.02 to 0.05	
C[C@H]1CCCN(Cc2cc(C(F)(F)F)c3cn(-c4cccc([C@]5(c6nncn6C)C[C@@H](OC(F)(F)F)C5)c4)nc3c2)C1 [Example 92]	0.05 to 0.5	
C[C@H]1CCCN(Cc2cc(C(F)(F)F)c3ncn(-c4cc([C@]5(c6nncn6C6CCC6)C[C@@H](C)C5)ccn4)c(=O)c3c2)C1 [Example 110]	0.05 to 0.5	
CC1CC(c2cc(OCF)nc(-n3ncc4c(C(F)(F)F)cc(CN5CCC[C@H](C)C5)cc4c3=O)c2)(c2nncn2C)C1 (stereo partly drawn) [Example 38]		< 0.02
CC(c1ccc2ncn(-c3cc([C@]4(c5nncn5C)C[C@@H](C)C4)cc(OCF)n3)c(=O)c2c1)N1CCC[C@H](C)C1 (stereo partly drawn) [Example 95]		< 0.02
CC1CN(Cc2cc(C(F)(F)F)c3ncn(-c4cc([C@]5(c6nncn6C)C[C@@H](C)C5)ccn4)c(=O)c3c2)CCC1(F)F (stereo partly drawn) [Example 34]	0.02 to 0.05	
C[C@H]1CCCN(Cc2cc3c(=O)n(-c4cc([C@]5(c6nncn6C)C[C@@H](C)C5)cc(OCF)n4)cnc3cn2)C1 [Example 99]	< 0.02	
Cn1cnnc1[C@]1(c2ccnc(-n3cnc4c(C(F)(F)F)cc(CN5CCC6(CCO6)C5)cc4c3=O)c2)C[C@H](C)C1 (stereo partly drawn) [Example 120]	0.5 to 1	
CC1CC(c2cccc(-n3[nH]c(=O)c4c(C(F)(F)F)cc(CN5CCC[C@H](C)C5)cc4c3=O)c2)(c2nncn2C)C1 (stereo partly drawn) [Example 81]	0.05 to 0.5	
C[C@H]1CCCN(Cc2cc(C(F)(F)F)c3cnn(-c4cccc(C5(c6nncn6C)CC(F)(F)C5)c4)c(=O)c3c2)C1 [Example 83]	0.05 to 0.5	
[2H]C([2H])([2H])n1cnnc1C1(c2ccnc(-n3cnc4c(C(F)(F)F)cc(CN5CCC[C@H](C)C5)cc4c3=O)c2)CC(C)C1 (stereo partly drawn) [Example 121]	< 0.02	
C[C@H]1CCCN(Cc2cc(C(F)(F)F)c3cn(-c4cccc(C5(c6nncn6C)CC(F)(F)C5)c4)nc3c2)C1 [Example 87]	0.02 to 0.05	
C[C@H]1CCCN(Cc2cc(C(F)(F)F)c3cnn(-c4cc([C@]5(c6nncn6C)C[C@@H](C)C5)ccn4)c(=O)c3c2)C1 (single isomer, unassigned) [Example 55]	0.5 to 1	
Cn1cnnc1[C@]1(c2cc(OCF)nc(-n3cnc4c(C(F)(F)F)cc(CN5CCCC(C)(F)C5)cc4c3=O)c2)C[C@H](C)C1 (stereo partly drawn) [Example 108]		< 0.02
[2H]c1nnc(C2(c3ccnc(-n4cnc5c(C(F)(F)F)cc(CN6CCC[C@H](C)C6)cc5c4=O)c3)CC(C)C2)n1C(F)F (stereo partly drawn) [Example 113]		< 0.02
C[C@H]1CCCN(Cc2cc(C(F)(F)F)c3cnn(-c4cccc([C@@H](c5nncn5C)C5CCC5)c4)c(=O)c3c2)C1 [Example 18]		> 1
CC1CC(c2cccc(N3CCc4c(cc(CN5CC[C@H](F)C5)cc4C(F)(F)F)C3=O)c2)(c2nncn2C)C1 (stereo partly drawn) [Example 1, (S)-7-((3-fluoropyrrolidin-1-yl)methyl)-2-(3-(3-methyl-1-(4-methyl-4H-1,2,4-triazol-3-yl)cyclobutyl)phenyl)-5-(trifluoromethyl)-3,4-dihydroisoquinolin-1(2H)-one]	0.05 to 0.5	
CC1CC(c2cccc(-n3cc4c(C(F)(F)F)cc(CN5CCC[C@H](C)C5)cc4n3)c2)(c2nncn2C)C1 (stereo partly drawn) [Example 7]		< 0.02
CC1CC(c2cccc(-c3nc4cc(CN5CCO[C@H](C)C5)cc(C(F)(F)F)c4s3)c2)(c2nncn2C)C1 (stereo partly drawn) [Example 11]	0.05 to 0.5	
Cn1cnnc1[C@]1(c2ccnc(-n3ncc4c(C(F)(F)F)cc(CN5CCCC6(CC6)C5)cc4c3=O)c2)C[C@H](C)C1 [Example 37]	0.05 to 0.5	
CC1CC(c2cc(C(N)=O)cc(-n3cc4c(C(F)(F)F)cc(CN5CCC[C@H](C)C5)cc4n3)c2)(c2nncn2C)C1 (stereo partly drawn) [Example 52]		< 0.02
C[C@H]1CCCN(Cc2ccc3ncn(-c4cc([C@]5(c6nncn6C(F)F)C[C@@H](C)C5)cc(OCF)n4)c(=O)c3c2)C1 [Example 124]		< 0.02
C[C@H]1CCCN(Cc2cc(C(F)(F)F)c3cn(-c4cccc(C5(Cc6nncn6C)COC5)c4)nc3c2)C1 [Example 88]		< 0.02
CC1CC(c2cccc(NC(=O)c3cc(CN4CCC[C@H](C)C4)cc4c3OC(F)(F)O4)c2)(c2nncn2C)C1 (stereo partly drawn) [Example 25]	0.02 to 0.05	
CC1CC(c2cccc(-n3[nH]c4c(C(F)(F)F)cc(CN5CCC[C@H](C)C5)cc4c3=O)c2)(c2nncn2C)C1 (stereo partly drawn) [Example 73]		> 1
C[C@H]1CCCN(Cc2cc3c(=O)n(-c4cccc([C@]5(c6nncn6C)C[C@@H](C)C5)c4)cnc3c(C(F)(F)F)n2)C1 [Example 62]	0.02 to 0.05	
C[C@H]1CCCN(Cc2cc(C(F)(F)F)c3ncn(-c4cc([C@]5(c6nncn6C)C[C@@H](CF)C5)ccn4)c(=O)c3c2)C1 [Example 114]	0.02 to 0.05	
CC1CC(c2cc(Cl)nc(-n3cnc4c(C(F)(F)F)cc(CN5CCC[C@H](C)C5)cc4c3=O)c2)(c2nncn2C)C1 (stereo partly drawn) [Example 41]	0.02 to 0.05	
C[C@H]1CCCN(Cc2cc(C(F)(F)F)c3cn(-c4cccc(C5(c6nncn6C)CC(OC(F)F)C5)c4)nc3c2)C1 (stereo partly drawn) [Example 59]	0.05 to 0.5	
C#C[C@H]1CCCN(Cc2cc(C(F)(F)F)c3cn(-c4cccc(C5(Cc6nncn6C)COC5)c4)nc3c2)C1 [Example 69]		< 0.02
